Reference: US20110218188A1, “SUBSTITUTED (PYRIDYL)-AZINYLAMINE DERIVATIVES AS FUNGICIDES” (priority 2008, published 2011)
Marks after values point to notes of the source that are not given here.

assay: Measurement of logP values by HPLC on reversed phase columns (EEC directive 79/831 Annex V.A8); format: physicochemical; conditions: pH 2.3

| logP [b] | Structure (SMILES) |
| --- | --- |
| 2.76[b] | COC1CCCN(C(=O)c2cc(-c3ncnc(Nc4cccc(Cl)c4)n3)ccn2)C1 (stereo not drawn) [Example B179] |

same assay, conditions: pH 2.7

| Structure (SMILES) | logP | chromatographic logP |
| --- | --- | --- |
| CCCCN(C)C(=O)c1cc(-c2ncnc(Nc3cccc(Cl)c3)n2)ccn1 [Example B123] | 3.48 | – |
| CCN(CC)C(=S)c1cc(-c2ncnc(Nc3cccc(C(F)F)c3)n2)ccn1 [Example B328] | 3.27 | – |
| CCCCN(CC)C(=O)c1cc(-c2ncnc(Nc3cccc(Cl)c3)n2)ccn1 [Example B162] | 3.87 | – |
| CCC(C)NC(=O)c1cc(-c2ncnc(Nc3cccc(SC)c3)n2)ccn1 (stereo not drawn) [B218] | 3.94 | – |
| CCOc1cccc(Nc2ncnc(-c3ccnc(C(=O)N(C)CC)c3)n2)c1 [Example B254] | 2.6 | – |
| CC(C)N(C)C(=O)c1cc(-c2ncnc(Nc3ccc(F)cc3)n2)ccn1 [Example B21] | 2.55 | – |
| COCc1cccc(Nc2ncnc(-c3ccnc(C(=O)N(C)C(COC)C4CC4)c3)n2)c1 (stereo not drawn) [B251] | 2.69 | – |
| CN(CC1CC1)C(=O)c1cc(-c2ncnc(Nc3cccc(F)c3)n2)ccn1 [Example B4] | 2.82 | – |
| CCN(C)C(=S)c1cc(-c2ncnc(Nc3cccc(OC(F)F)c3)n2)ccn1 [B424] | 3.06 | – |
| O=C(c1cc(Nc2nccc(-c3ccnc(C(=O)N4CC=CCC4)c3)n2)ccn1)N1CC=CCC1 [Example A3] | 1.6 | – |
| CCN(C)C(=O)c1cc(-c2ncnc(Nc3cccc(F)c3)n2)ccn1 [Example B7] | 2.4 | – |
| CCN(CC)C(=O)c1cc(-c2nc(Nc3ccsc3)ncc2C)ccn1 [Example A41, N,N-diethyl-4-[5-methyl-2-(3-thienylamino)pyrimidin-4-yl]pyridine-2-carboxamide] | – | 2.61 |
| COc1cccc(Nc2ncnc(-c3ccnc(C(=O)N(C)CC4CC4)c3)n2)c1F [Example B275] | 2.7 | – |
| CCN(C)C(=S)c1cc(-c2ncnc(Nc3cccc(OC(F)(F)C(F)F)c3)n2)ccn1 [Example B261] | 3.41 | – |
| CN(CC(F)F)C(=O)c1cc(-c2ncnc(Nc3cccc(OC(F)F)c3)n2)ccn1 [Example B370] | 2.86 | – |
| CC(C)N(C)C(=O)c1cc(-c2ncnc(Nc3ccccc3)n2)ccn1 [Example B317] | 2.45 | – |
| CN(C)C(=O)c1cc(-c2ncnc(Nc3ccsc3)n2)ccn1 [Example C19] | 1.86 | – |
| COc1cccc(Nc2ncnc(-c3ccnc(C(=O)N(C)C(C)C)c3)n2)c1 [Example B279] | 2.51 | – |
| CCN(C)C(=O)c1cc(-c2ncnc(Nc3ccc(F)c(F)c3)n2)ccn1 [Example B378] | 2.55 | – |
| CCN(C)C(=S)c1cc(-c2ncnc(Nc3cccc(F)c3)n2)ccn1 [Example B10] | 2.94 | – |
| CC(C)CN(C)C(=O)c1cc(-c2ncnc(Nc3cccc(C#N)c3)n2)ccn1 [Example B295] | 2.73 | – |

| Structure (SMILES) | logP | chromatographic logP |
| --- | --- | --- |
| CC(C)CN(C)C(=O)c1cc(-c2ncnc(Nc3cccc(Cl)c3)n2)ccn1 [Example B151] | 3.42 | – |
| CN(CC(F)F)C(=O)c1cc(-c2ncnc(Nc3ccc(F)c(F)c3)n2)ccn1 [Example B382] | 2.86 | – |
| CN(CC(F)F)C(=O)c1cc(-c2ncnc(Nc3cccc(C(F)F)c3)n2)ccn1 [Example B371] | 2.75 | – |
| CC(C)CN(C)C(=O)c1cc(-c2ncnc(Nc3cccc(C(F)F)c3)n2)ccn1 [Example B289] | 3.04 | – |
| CCCC(C)NC(=O)c1cc(-c2ncnc(Nc3ccc(F)c(Cl)c3)n2)ccn1 (stereo not drawn) [B200] | 4.64 | – |
| CN(CC1CC1)C(=O)c1cc(-c2ncnc(Nc3cccc(OC(F)(F)F)c3)n2)ccn1 [Example B265] | 3.48 | – |
| C#CCN(c1cccc(F)c1)c1ncnc(-c2ccnc(C(=S)N(C)CC)c2)n1 [B345] | 3.25 | – |
| COCCN(C)C(=O)c1cc(-c2ncnc(Nc3ccc(F)cc3)n2)ccn1 [Example B22] | 3.92 | – |
| CC(C)N(C)C(=O)c1cc(-c2ncnc(Nc3cccc(F)c3)n2)ccn1 [Example B8] | 2.67 | – |
| CC(C)CN(C)C(=O)c1cc(-c2ncnc(Nc3ccc(F)c(F)c3)n2)ccn1 [Example B380] | 3.19 | – |
| C=CCN(C)C(=O)c1cc(-c2ncnc(Nc3cccc(Cl)c3)n2)ccn1 [Example B127] | 2.96 | – |
| CON(C)C(=O)c1cc(-c2ncnc(Nc3cccc(C(F)F)c3)n2)ccn1 [B412] | 2.34 | – |
| CN(CCC#N)C(=O)c1cc(-c2ncnc(Nc3cccc(F)c3)n2)ccn1 [Example B1] | 2.22 | – |
| CN(CC(F)F)C(=O)c1cc(-c2ncnc(Nc3ccc(F)c(C(F)F)c3)n2)ccn1 [Example B398] | 2.84 | – |
| CC(C)N(C)C(=O)c1cc(-c2ncnc(Nc3cccc(OC(F)(F)F)c3)n2)ccn1 [B269] | 3.29 | – |
| CCCN(C)C(=O)c1cc(-c2ncnc(Nc3cccc(C(F)F)c3)n2)ccn1 [Example B286] | 2.73 | – |
| CN(CCC#N)C(=O)c1cc(-c2ncnc(Nc3ccc(F)cc3)n2)ccn1 [Example B14] | 2.14 | – |
| CCCN(C)C(=O)c1cc(-c2ncnc(Nc3cccc(OC(F)(F)F)c3)n2)ccn1 [Example B264] | 3.37 | – |
| CCON(CC)C(=O)c1cc(-c2ncnc(Nc3ccsc3)n2)ccn1 [Example C31] | 2.59 | – |
| Cc1ccc(Nc2nccc(-c3ccnc(C(=O)N(C)C)c3)n2)s1 [Example A48] | 2.13 | – |
| CN(CC1CC1)C(=S)c1cc(-c2ncnc(Nc3cccc(F)c3)n2)ccn1 [Example B12] | 3.42 | – |

The next lines start with the values.

| logP | chromatographic logP | Structure (SMILES) |
| --- | --- | --- |
| – | 2.08 | CCOC(=N)c1cc(-c2ncnc(Nc3cccc(Cl)c3)n2)ccn1 [Example B102, ethyl 4-{4-[(3-chlorophenyl)amino]-1,3,5-triazin-2-yl}pyridine-2-carboximidoate] |
| 2.4 | – | O=C(NCCCO)c1cc(-c2ncnc(Nc3cccc(Cl)c3)n2)ccn1 [Example B183] |
| 2.07 | – | O=C(c1cc(-c2ncnc(Nc3cccc(Cl)c3)n2)ccn1)N1CCC(O)C1 (stereo not drawn) [B177] |
| 4.3 | – | CC(C)CCNC(=O)c1cc(-c2ncnc(Nc3cccc(Cl)c3)n2)ccn1 [B61] |
| 3.05 | – | O=C(NC1CC1)c1cc(-c2ncnc(Nc3cccc(Cl)c3)n2)ccn1 [Example B57] |
| 6.22 | – | CCC(=NOCc1ccc(Cl)cc1)c1cc(-c2ncnc(Nc3cccc(Cl)c3)n2)ccn1 (mixture of isomers) [B70] |
| 2.59 | – | CCN(CC)C(=O)c1cc(-c2ncnc(Nc3cccc(OC)c3)n2)ccn1 [Example B273] |
| 4.7 | – | C=CCON=C(C)c1cc(-c2ncnc(Nc3cccc(Cl)c3)n2)ccn1 (mixture of isomers) [Example B29] |
| 3.09 | – | COCC(C1CC1)N(C)C(=O)c1cc(-c2ncnc(Nc3cccc(Cl)c3)n2)ccn1 (stereo not drawn) [Example B188] |
| 3.15 | – | CCN(CC)C(=S)c1cc(-c2ncnc(Nc3cccc(OC)c3)n2)ccn1 [Example B282] |
| 2.15 | – | O=C1CN(C(=O)c2cc(-c3ncnc(Nc4cccc(Cl)c4)n3)ccn2)CN1 [B168] |
| 2.11 | – | O=C(O)c1cc(-c2ncnc(Nc3cccc(Cl)c3)n2)ccn1 [B404] |
| 3.53 | – | CSc1cccc(Nc2ncnc(-c3ccnc(C(=O)NC(C)C)c3)n2)c1 [B217] |
| 2.25 | – | CCN(CCO)C(=O)c1cc(-c2ncnc(Nc3cccc(Cl)c3)n2)ccn1 [Example B164] |
| 2.88 | – | O=C(c1cc(-c2ncnc(Nc3cccc(Cl)c3)n2)ccn1)N1CCCC1 [Example B28] |
| 1.72 | – | CC(CN(C)C)NC(=O)c1cc(-c2ncnc(Nc3cccc(Cl)c3)n2)ccn1 (stereo not drawn) [B66] |
| 6.02 | – | CC(=NOCc1c(Cl)cccc1Cl)c1cc(-c2ncnc(Nc3cccc(Cl)c3)n2)ccn1 (mixture of isomers) [B39] |
| 5.13 | – | CCCON=C(C)c1cc(-c2ncnc(Nc3cccc(Cl)c3)n2)ccn1 (mixture of isomers) [Example B43] |

| logP | chromatographic logP | Structure (SMILES) |
| --- | --- | --- |
| 2.55 | – | COC(=O)c1cc(-c2ncnc(Nc3cccc(C(F)F)c3)n2)ccn1 [B406] |
| 4.96 | – | COc1ccc(CON=C(C)c2cc(-c3ncnc(Nc4cccc(Cl)c4)n3)ccn2)cc1 (mixture of isomers) [B60] |
| 3.33 | – | CCN(C)C(=S)c1cc(-c2ncnc(Nc3ccc(F)c(Cl)c3)n2)ccn1 [Example B209] |
| 3.26 | – | Cc1ccc(Nc2ncnc(-c3ccnc(C(=O)N4CCCC4)c3)n2)cc1Cl [B224] |
| 3.92 | – | CC(C)=CC(=O)O/N=C(/N)c1cc(-c2ncnc(Nc3cccc(Cl)c3)n2)ccn1 [Example B111] |
| 2.75 | – | CCN(C)C(=O)c1cc(-c2ncnc(Nc3ccc(F)c(Cl)c3)n2)ccn1 [Example B207] |
| 5.39 | – | CCC(=NOCC(F)(F)F)c1cc(-c2ncnc(Nc3cccc(Cl)c3)n2)ccn1 (mixture of isomers) [B58] |
| 6.59 | – | CCC(=NOC(C1CC1)C1CC1)c1cc(-c2ncnc(Nc3cccc(Cl)c3)n2)ccn1 (mixture of isomers) [B79] |
| 2.84 | – | COCCNC(=O)c1cc(-c2ncnc(Nc3cccc(Cl)c3)n2)ccn1 [B59] |
| 3.15 | – | COCCCNC(=O)c1cc(-c2ncnc(Nc3cccc(Cl)c3)n2)ccn1 [B88] |
| 2.2 | – | CCN(C)C(=O)c1cc(-c2ncnc(Nc3ccccc3)n2)ccn1 [Example B316] |
| – | 2.13 | O=C(NO)c1cc(-c2ncnc(Nc3cccc(Cl)c3)n2)ccn1 [Example B185, 4-{4-[(3-chlorophenyl)amino]-1,3,5-triazin-2-yl}-N-hydroxypyridine-2-carboxamide] |
| 6.24 | – | CCC(=NOC(C)C1CC1)c1cc(-c2ncnc(Nc3cccc(Cl)c3)n2)ccn1 (mixture of isomers) [B84] |
| 1.4 | – | CC(=O)Nc1cccc(Nc2ncnc(-c3ccnc(C(=O)N(C)C)c3)n2)c1 [Example B307] |
| 2.01 | – | COc1cccc(Nc2ncnc(-c3ccnc(C(=O)N(C)C)c3)n2)c1 [Example B276] |
| 3.48 | – | CC1CCCN(C(=O)c2cc(-c3ncnc(Nc4cccc(Cl)c4)n3)ccn2)C1 (stereo not drawn) [Example B135] |
| 4.3 | – | CC(C)C(C)NC(=O)c1cc(-c2ncnc(Nc3cccc(Cl)c3)n2)ccn1 (stereo not drawn) [B62] |

same assay, conditions: pH 7.8

| logP | Structure (SMILES) |
| --- | --- |
| 2.11^[c] | CCCN(C)C(=O)c1cc(-c2ncnc(Nc3ccc(OC)nc3)n2)ccn1 [Example C5] |
| 1.99^[c] | COc1ccc(Nc2ncnc(-c3ccnc(C(=O)N4CCCC4)c3)n2)cn1 [Example C1] |
| 2.88^[c] | CCCN(CCC)C(=O)c1cc(-c2ccnc(Nc3ccnc(Cl)c3)n2)ccn1 [Example A11] |
